Measurements: article PMC10928576, “Cpne7 deficiency induces cellular senescence and premature aging of dental pulp” (Aging Cell, 2023)

Tests used:
hDPCs [1] = assay: γ-H2AX / P21 western blot in H2O2-treated hDPCs; type: cell-based, human
Method: Cellular proteins (30 μg) were separated by 10% or 15% sodium dodecyl sulfate‐polyacrylamide gel electrophoresis (SDS‐PAGE) and transferred to polyvinylidene fluoride (PVDF) membranes. The PVDF membranes were blocked for 1 h with 5% nonfat dry milk in Tris‐buffered saline containing 0.1% Tween 20 (TBS‐T) and incubated overnight at 4°C with the primary antibody diluted in TBS‐T (1:5000). After washing, membranes were incubated for 1 h with the appropriate secondary antibodies. Labeled protein bands were detected under an enhanced chemiluminescence system (Amersham Biosciences/GE Healthcare). All reactions were performed in triplicate. Semi‐quantitative analyses were performed using Image J software (National Institute of Health, MD, USA) (n = 3, each group).

hDPCs [2] = details: 30 min or 1 h after H2O2 100 μM, 500 μM or 1 mM
hDPCs [3] = assay: Comet assay; type: cell-based, human; details: 1 mM H2O2
Method: Human DPCs were combined with Comet Agarose (Abcam, ab238544) at 1/10 ratio (v/v), mixed by pipetting, and immediately transferred onto the top of the Comer Agarose Base Layer Slide (Abcam, ab238544). Set horizontally, the slides were incubated at 4°C in the dark for 15 min, and placed in a small basin/container containing pre‐chilled Lysis Buffer (Abcam, ab238544). They were immersed in the buffer for 1 h at 4°C in the dark. After 1 h, aspiration of the Lysis Buffer from the container was done and replaced with a pre‐chilled Alkaline Solution (Abcam, ab238544), followed by electrophoresis chamber filled with the Alkaline Electrophoresis Solution. Voltage was applied to the chamber for 30 min at 1 volt/cm. The slides were then rinsed with pre‐chilled DI H2O and replaced with cold 70% Ethanol for 5 min. The slide was removed from the 70% Ethanol and allowed to air dry. Once the slide was completely dry, staining with Vista Green DNA Dye (Abcam, ab238544) was done at room temperature for 15 min. Cells were visualized using confocal microscopy (LSM980, Zeiss, Germany) (n = 3, each group).

hDPCs [4] = assay: Senescence β-galactosidase (SA-β gal) staining of H2O2-treated hDPCs; type: cell-based, human; details: hDPCs, 1 mM H2O2, 30 min
Method: The hDPCs were obtained from the Seoul National University Dental Hospital, and the experimental protocol was accepted by the Institutional Review Board of the Seoul National University (S‐D20140007). Informed consent was obtained from patients. Human DPCs were isolated and used in an in vitro experiment as described previously (Jung et al., [2011]). Human DPCs were cultured in minimum essential medium α (Gibco BRL, 12571063) supplemented with 10% heat‐inactivated fetal bovine serum (FBS; Gibco BRL, 16000044) and antibiotic‐antimycotic (Gibco BRL, 15240062) at 37°C in an atmosphere with 5% CO2. The cells were then treated with recombinant CPNE7 protein (rCPNE7, 100 ng/mL; Origene, TP306428) or CPNE7‐derived peptide (CPNE7‐DP, 10 μg/mL). After oxidative stress‐induced DNA damage using Hydrogen Peroxide Solution (H2O2; Merck, H1009) rCPNE7 was treated after replacement with a new culture medium (α‐MEM).
Human DPCs were fixated with Fixative Solution (Cell Signaling Technology, #9860) at room temperature for 15 min. Rinsed twice with PBS, the cells were then stained with β‐Galactosidase Staining Solution (Cell Signaling Technology, #9860) at 37°C overnight in a dry incubator (no CO2). Cells were observed using light microscopy (Primovert, Zeiss, Germany) (n = 3, each group).

hDPCs [5] = assay: γ-H2AX immunofluorescence in hDPCs; type: cell-based, human; details: 1 mM H2O2, vs control
Method: Human DPCs and tissue sections were treated with phosphate‐buffered saline (PBS) and 0.5% Triton X‐100 for permeabilization. After washing and blocking, cells and tissue samples were incubated overnight at 4°C with γ‐H2AX (1:100, Cell Signaling Technology, #9718) and CPNE7 (1:100) in blocking buffer (PBS and 2% bovine serum albumin). Subsequently, FITC‐conjugated anti‐rabbit secondary antibody (1:500) or Cy3‐conjugated anti‐rabbit (1:500) was applied. Cells were visualized using confocal microscopy (LSM980, Zeiss, Germany). The chromosomal DNA in the nucleus was stained with 4′,6‐diamidino‐2‐phenylindole (DAPI). The microtubules were detected using α‐TUBULIN antibodies (1:1000; Santa Cruz), and F‐ACTIN was stained with Alexa Fluor 488 or rhodamine‐conjugated phalloidin (Invitrogen). Flag‐tagged rCPNE7 was detected using Flag‐antibodies (1:500; Sigma–Aldrich), and TAU was detected by TAU antibodies (1:100; CUSABIO). Immunofluorescence staining of TAU, F‐ACTIN, and α‐TUBULIN was analyzed using the IMARIS cell imaging software (Bitplane) (n = 3, each group).

hDPCs [6] = tested on: hDPCs

OO [H2O2, hydrogen peroxide, reference compound]
expressions of γ-H2AX and P21 (DNA damage and cell cycle arrest) (hDPCs [1]; 500 μM H2O2): upregulated | protein expression level of γ-H2AX (western blot) (hDPCs [1]; 1 mM and 2 mM H2O2): clearly detected | endogenous mRNA expression level of Cpne7 (hDPCs [2]): started to increase | DNA fragmentation (comet assay) (hDPCs [3]): fragmented DNA visualized as a cell tail | SA-β gal positive signals (induction of senescence) (hDPCs [4]): began to deposit | expression of γ-H2AX (immunofluorescence) (hDPCs [5]): specifically detected in cellular nuclei | cytotoxicity of oxidative stress (hDPCs [6]; 1 mM and 2 mM H2O2, after 48 h): severe cytotoxicity | cell death / survival rate (WST-8) (hDPCs [6]; H2O2 50 μM to 2 mM for 24 h): cell death occurred in a concentration‐dependent manner except for 50 μM
